Test results reported in ChEMBL document CHEMBL4507301 (2021).

Tests used:
[1] = target: Serine/threonine-protein kinase MAK (Homo sapiens) (UniProt P20794); conditions: Compound concentration 1000.0 nM
[2] = target: cGMP-dependent protein kinase 1 (Homo sapiens) (UniProt Q13976); conditions: Compound concentration 1000.0 nM
[3] = test system: ALK tyrosine kinase receptor (Homo sapiens), Q9UM73 [L1196M]; conditions: Compound concentration 1000.0 nM
[4] = target: Fibroblast growth factor receptor 1 (Homo sapiens) (UniProt P11362); conditions: Compound concentration 1000.0 nM
[5] = target: Ephrin type-B receptor 1 (Homo sapiens) (UniProt P54762); conditions: Compound concentration 1000.0 nM
[6] = target: BDNF/NT-3 growth factors receptor (Homo sapiens) (UniProt Q16620); conditions: Compound concentration 1000.0 nM
[7] = test system: Epidermal growth factor receptor (Homo sapiens), P00533 [T790M]; conditions: Compound concentration 1000.0 nM
[8] = target: Casein kinase II subunit alpha' (Homo sapiens) (UniProt P19784); conditions: Compound concentration 1000.0 nM
[9] = target: Receptor tyrosine-protein kinase erbB-4 (Homo sapiens) (UniProt Q15303); conditions: Compound concentration 1000.0 nM
[10] = target: Mitogen-activated protein kinase 4 (Homo sapiens) (UniProt P31152); conditions: Compound concentration 1000.0 nM
[11] = target: Cyclin-dependent kinase 4 (Homo sapiens) (UniProt P11802); conditions: Compound concentration 1000.0 nM
[12] = target: Mitogen-activated protein kinase kinase kinase 14 (Homo sapiens) (UniProt Q99558); conditions: Compound concentration 1000.0 nM
[13] = target: Protein kinase C delta type (Homo sapiens) (UniProt Q05655); conditions: Compound concentration 1000.0 nM
[14] = target: Fibroblast growth factor receptor 4 (Homo sapiens) (UniProt P22455); conditions: Compound concentration 1000.0 nM
[15] = target: GABA-A receptor; anion channel (Rattus norvegicus) (UniProt O09028+P15431+P18506+P18508+P19969+P20236+P23574+P23576+P28471+P28473+P30191+P62813+P63079+P63138+Q91ZM7+Q9ES14); conditions: Compound concentration 10.0 uM
[16] = test system: Mast/stem cell growth factor receptor Kit (Homo sapiens), P10721 [V559D]; conditions: Compound concentration 1000.0 nM
[17] = target: Serine/threonine-protein kinase TNNI3K (Homo sapiens) (UniProt Q59H18); conditions: Compound concentration 1000.0 nM
[18] = target: Insulin-like growth factor 1 receptor (Homo sapiens) (UniProt P08069); conditions: Compound concentration 1000.0 nM
[19] = target: Tyrosine-protein kinase Lyn (Homo sapiens) (UniProt P07948); conditions: Compound concentration 1000.0 nM
[20] = target: Serine/threonine-protein kinase Nek1 (Homo sapiens) (UniProt Q96PY6); conditions: Compound concentration 1000.0 nM
[21] = target: Mitogen-activated protein kinase kinase kinase 11 (Homo sapiens) (UniProt Q16584); conditions: Compound concentration 1000.0 nM
[22] = target: Tyrosine-protein kinase Fyn (Homo sapiens) (UniProt P06241); conditions: Compound concentration 1000.0 nM
[23] = target: Phosphatidylinositol 3-kinase catalytic subunit type 3 (Homo sapiens) (UniProt Q8NEB9); conditions: Compound concentration 1000.0 nM
[24] = target: Mitogen-activated protein kinase kinase kinase kinase 1 (Homo sapiens) (UniProt Q92918); conditions: Compound concentration 1000.0 nM
[25] = target: Interleukin-1 receptor-associated kinase 3 (Homo sapiens) (UniProt Q9Y616); conditions: Compound concentration 1000.0 nM
[26] = target: ALK tyrosine kinase receptor (Homo sapiens) (UniProt Q9UM73); conditions: Compound concentration 1000.0 nM
[27] = target: Non-receptor tyrosine-protein kinase TYK2 (Homo sapiens) (UniProt P29597); conditions: Compound concentration 1000.0 nM
[28] = target: Receptor-interacting serine/threonine-protein kinase 4 (Homo sapiens) (UniProt P57078); conditions: Compound concentration 1000.0 nM
[29] = target: Interferon-induced, double-stranded RNA-activated protein kinase (Homo sapiens) (UniProt P19525); conditions: Compound concentration 1000.0 nM
[30] = target: Serine/threonine-protein kinase RIO3 (Homo sapiens) (UniProt O14730); conditions: Compound concentration 1000.0 nM
[31] = target: Serine/threonine-protein kinase 3 (Homo sapiens) (UniProt Q13188); conditions: Compound concentration 1000.0 nM
[32] = target: Serine/threonine-protein kinase Sgk2 (Homo sapiens) (UniProt Q9HBY8); conditions: Compound concentration 1000.0 nM
[33] = target: Serine/threonine-protein kinase NLK (Homo sapiens) (UniProt Q9UBE8); conditions: Compound concentration 1000.0 nM
[34] = target: Receptor-type tyrosine-protein kinase FLT3 (Homo sapiens) (UniProt P36888); conditions: Compound concentration 1000.0 nM
[35] = target: Cyclin-dependent kinase 11A (Homo sapiens) (UniProt Q9UQ88); conditions: Compound concentration 1000.0 nM
[36] = target: Vascular endothelial growth factor receptor 2 (Homo sapiens) (UniProt P35968); conditions: Compound concentration 1000.0 nM
[37] = target: Mitogen-activated protein kinase kinase kinase kinase 4 (Homo sapiens) (UniProt O95819); conditions: Compound concentration 1000.0 nM
[38] = target: Tyrosine-protein kinase Yes (Homo sapiens) (UniProt P07947); conditions: Compound concentration 1000.0 nM
[39] = target: Fibroblast growth factor receptor 3 (Homo sapiens) (UniProt P22607); conditions: Compound concentration 1000.0 nM
[40] = target: Dual specificity protein kinase CLK2 (Homo sapiens) (UniProt P49760); conditions: Compound concentration 1000.0 nM
[41] = target: Ribosomal protein S6 kinase alpha-5 (Homo sapiens) (UniProt O75582); conditions: Compound concentration 1000.0 nM
[42] = target: Serine/threonine-protein kinase 17B (Homo sapiens) (UniProt O94768); conditions: Compound concentration 1000.0 nM
[43] = target: Calcium/calmodulin-dependent protein kinase type II subunit delta (Homo sapiens) (UniProt Q13557); conditions: Compound concentration 1000.0 nM
[44] = target: Mitogen-activated protein kinase 14 (Homo sapiens) (UniProt Q16539); conditions: Compound concentration 1000.0 nM
Mitogen-activated protein kinase 14 (Homo sapiens), sequence (Q16539 whole entry): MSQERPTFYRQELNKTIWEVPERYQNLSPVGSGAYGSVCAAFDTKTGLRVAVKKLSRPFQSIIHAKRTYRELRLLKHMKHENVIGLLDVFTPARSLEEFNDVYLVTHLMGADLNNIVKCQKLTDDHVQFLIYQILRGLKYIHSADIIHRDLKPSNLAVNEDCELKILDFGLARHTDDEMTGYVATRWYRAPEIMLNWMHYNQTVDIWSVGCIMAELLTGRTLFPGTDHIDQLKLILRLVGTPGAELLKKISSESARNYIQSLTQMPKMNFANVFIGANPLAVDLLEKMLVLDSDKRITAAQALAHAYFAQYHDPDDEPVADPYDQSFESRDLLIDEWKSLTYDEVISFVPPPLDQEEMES

Cyclin-dependent kinase 4 (Homo sapiens), sequence (P11802 whole entry): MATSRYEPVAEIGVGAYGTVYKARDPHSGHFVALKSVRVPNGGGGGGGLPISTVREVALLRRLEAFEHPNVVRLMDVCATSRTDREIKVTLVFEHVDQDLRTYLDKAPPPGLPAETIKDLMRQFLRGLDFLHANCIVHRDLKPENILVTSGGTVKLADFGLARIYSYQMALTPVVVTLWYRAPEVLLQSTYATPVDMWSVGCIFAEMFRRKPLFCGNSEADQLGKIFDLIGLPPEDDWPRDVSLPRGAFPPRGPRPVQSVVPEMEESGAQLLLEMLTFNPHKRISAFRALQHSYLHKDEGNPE
Fibroblast growth factor receptor 4 (Homo sapiens), sequence (P22455 22-802 limits assumed): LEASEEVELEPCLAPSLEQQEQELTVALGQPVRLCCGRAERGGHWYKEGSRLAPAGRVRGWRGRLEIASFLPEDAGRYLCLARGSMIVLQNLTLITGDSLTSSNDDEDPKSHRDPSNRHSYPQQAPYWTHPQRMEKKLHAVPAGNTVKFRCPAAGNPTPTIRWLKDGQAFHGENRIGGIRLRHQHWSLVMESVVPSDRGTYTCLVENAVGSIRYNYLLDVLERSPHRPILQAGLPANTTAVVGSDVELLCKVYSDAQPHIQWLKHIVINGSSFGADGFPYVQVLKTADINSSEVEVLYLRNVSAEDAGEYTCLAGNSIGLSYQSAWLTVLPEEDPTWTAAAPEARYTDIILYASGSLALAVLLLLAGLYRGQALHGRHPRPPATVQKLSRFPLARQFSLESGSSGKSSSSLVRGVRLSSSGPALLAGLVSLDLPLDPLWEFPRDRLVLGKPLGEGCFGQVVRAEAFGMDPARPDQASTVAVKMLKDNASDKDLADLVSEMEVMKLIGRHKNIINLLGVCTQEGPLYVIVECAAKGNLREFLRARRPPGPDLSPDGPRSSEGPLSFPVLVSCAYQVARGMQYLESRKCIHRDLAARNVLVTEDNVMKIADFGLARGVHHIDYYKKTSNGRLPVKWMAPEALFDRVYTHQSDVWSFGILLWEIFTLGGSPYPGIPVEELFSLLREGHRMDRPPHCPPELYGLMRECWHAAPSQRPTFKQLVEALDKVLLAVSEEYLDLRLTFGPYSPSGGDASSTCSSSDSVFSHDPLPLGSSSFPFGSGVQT
Mitogen-activated protein kinase kinase kinase 11 (Homo sapiens), sequence (Q16584 whole entry, looked up): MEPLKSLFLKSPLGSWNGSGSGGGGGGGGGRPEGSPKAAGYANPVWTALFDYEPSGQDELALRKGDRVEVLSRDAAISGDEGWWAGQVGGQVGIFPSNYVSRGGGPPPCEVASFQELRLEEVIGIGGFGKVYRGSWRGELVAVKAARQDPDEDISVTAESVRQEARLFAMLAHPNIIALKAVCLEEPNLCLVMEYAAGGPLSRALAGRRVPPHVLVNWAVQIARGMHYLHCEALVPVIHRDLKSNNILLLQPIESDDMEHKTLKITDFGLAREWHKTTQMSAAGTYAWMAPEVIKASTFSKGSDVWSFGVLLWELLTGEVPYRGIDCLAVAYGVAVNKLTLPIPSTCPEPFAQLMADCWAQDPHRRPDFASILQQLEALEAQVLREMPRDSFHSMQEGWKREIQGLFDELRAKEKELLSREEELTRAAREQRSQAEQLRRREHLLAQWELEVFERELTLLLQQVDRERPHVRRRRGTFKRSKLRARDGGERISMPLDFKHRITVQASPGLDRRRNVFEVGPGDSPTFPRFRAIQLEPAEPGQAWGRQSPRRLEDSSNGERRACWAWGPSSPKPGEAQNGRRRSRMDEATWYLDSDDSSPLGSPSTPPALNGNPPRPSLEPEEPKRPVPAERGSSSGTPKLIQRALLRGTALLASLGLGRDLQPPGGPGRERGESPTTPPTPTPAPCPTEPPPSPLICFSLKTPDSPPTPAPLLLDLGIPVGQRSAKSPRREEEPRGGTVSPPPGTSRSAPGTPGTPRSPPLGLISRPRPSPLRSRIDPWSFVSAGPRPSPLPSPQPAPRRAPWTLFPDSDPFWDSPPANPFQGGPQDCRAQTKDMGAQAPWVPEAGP
Non-receptor tyrosine-protein kinase TYK2 (Homo sapiens), sequence (P29597 whole entry): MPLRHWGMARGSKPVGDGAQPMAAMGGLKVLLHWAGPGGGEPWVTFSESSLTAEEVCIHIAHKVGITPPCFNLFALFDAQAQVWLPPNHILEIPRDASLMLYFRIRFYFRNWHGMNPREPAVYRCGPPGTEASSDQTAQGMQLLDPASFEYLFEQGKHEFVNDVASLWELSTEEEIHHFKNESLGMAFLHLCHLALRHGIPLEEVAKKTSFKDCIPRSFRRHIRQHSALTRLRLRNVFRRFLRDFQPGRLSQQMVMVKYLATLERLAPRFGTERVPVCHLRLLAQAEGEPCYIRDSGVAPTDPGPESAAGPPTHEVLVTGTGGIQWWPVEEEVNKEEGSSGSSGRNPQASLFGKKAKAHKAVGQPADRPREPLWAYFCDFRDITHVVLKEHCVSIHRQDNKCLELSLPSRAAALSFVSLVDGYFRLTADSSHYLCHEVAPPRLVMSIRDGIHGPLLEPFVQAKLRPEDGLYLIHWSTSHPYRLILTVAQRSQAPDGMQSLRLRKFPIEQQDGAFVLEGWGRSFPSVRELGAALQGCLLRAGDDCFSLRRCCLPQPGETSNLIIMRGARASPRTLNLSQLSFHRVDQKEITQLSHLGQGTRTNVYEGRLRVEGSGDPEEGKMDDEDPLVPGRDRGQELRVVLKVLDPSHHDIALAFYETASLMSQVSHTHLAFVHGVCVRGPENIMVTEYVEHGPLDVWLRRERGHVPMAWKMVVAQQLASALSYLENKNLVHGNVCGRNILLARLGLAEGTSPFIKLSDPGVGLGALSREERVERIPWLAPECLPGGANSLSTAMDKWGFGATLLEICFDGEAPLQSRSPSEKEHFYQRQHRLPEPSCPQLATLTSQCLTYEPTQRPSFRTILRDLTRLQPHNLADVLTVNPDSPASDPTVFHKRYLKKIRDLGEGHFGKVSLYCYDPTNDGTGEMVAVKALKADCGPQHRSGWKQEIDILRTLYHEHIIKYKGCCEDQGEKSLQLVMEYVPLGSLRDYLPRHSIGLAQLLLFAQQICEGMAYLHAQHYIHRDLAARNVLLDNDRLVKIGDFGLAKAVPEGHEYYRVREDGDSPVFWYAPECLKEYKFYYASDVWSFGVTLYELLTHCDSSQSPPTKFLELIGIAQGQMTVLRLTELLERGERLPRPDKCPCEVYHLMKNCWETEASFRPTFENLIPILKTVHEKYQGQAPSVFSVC
Tyrosine-protein kinase Fyn (Homo sapiens), sequence (P06241 2-537 limits assumed): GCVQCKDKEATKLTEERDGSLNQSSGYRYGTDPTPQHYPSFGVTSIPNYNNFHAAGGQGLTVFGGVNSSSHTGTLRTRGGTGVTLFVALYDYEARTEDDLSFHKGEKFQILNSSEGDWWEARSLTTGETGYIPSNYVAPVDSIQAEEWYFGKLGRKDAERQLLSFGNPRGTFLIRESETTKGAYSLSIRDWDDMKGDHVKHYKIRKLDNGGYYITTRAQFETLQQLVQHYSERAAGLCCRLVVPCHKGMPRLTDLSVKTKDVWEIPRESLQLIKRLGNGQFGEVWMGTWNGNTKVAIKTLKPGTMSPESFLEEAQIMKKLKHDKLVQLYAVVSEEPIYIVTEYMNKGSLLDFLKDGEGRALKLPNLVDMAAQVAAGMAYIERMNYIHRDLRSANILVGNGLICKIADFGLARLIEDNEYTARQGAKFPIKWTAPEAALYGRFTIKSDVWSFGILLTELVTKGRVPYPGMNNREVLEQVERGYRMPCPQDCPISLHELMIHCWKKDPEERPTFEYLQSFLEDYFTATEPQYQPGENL
Mitogen-activated protein kinase 4 (Homo sapiens), sequence (P31152 whole entry): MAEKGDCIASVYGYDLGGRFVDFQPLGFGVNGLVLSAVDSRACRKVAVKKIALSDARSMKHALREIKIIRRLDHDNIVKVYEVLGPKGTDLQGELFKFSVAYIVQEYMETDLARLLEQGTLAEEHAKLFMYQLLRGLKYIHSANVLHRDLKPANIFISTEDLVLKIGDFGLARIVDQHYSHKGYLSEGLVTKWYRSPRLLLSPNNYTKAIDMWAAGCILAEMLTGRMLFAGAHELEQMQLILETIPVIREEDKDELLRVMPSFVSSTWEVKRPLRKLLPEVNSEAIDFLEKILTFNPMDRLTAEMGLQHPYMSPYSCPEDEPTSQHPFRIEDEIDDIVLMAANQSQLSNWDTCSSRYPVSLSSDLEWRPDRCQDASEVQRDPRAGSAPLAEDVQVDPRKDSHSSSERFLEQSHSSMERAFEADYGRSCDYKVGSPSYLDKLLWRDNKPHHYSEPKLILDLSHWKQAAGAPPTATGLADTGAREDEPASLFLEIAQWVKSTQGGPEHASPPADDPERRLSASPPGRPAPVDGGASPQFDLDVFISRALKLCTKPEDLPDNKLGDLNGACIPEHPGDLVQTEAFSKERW
Casein kinase II subunit alpha' (Homo sapiens), sequence (P19784 whole entry, looked up): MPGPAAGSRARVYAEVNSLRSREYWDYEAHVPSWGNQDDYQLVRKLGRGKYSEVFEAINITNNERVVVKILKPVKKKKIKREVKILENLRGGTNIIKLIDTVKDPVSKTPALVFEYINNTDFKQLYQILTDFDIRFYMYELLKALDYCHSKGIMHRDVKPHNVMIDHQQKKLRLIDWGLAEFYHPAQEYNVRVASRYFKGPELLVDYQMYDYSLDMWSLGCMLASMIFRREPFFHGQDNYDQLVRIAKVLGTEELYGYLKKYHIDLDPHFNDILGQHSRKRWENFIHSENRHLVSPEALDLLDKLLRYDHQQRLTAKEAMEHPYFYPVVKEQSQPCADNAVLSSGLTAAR

C[C@H](c1cccc(C#N)c1)n1cc(Cl)cc(C(N)=O)c1=N [(R)-9s]
residual activity [1]: 100% | residual activity [2]: 100% | residual activity [3]: 76% | residual activity [4]: 95% | residual activity [5]: 100% | residual activity [6]: 100% | residual activity [7]: 80% | residual activity [8]: 100% | residual activity [9]: 100% | residual activity [10]: 82% | residual activity [11]: 96% | residual activity [12]: 62% | residual activity [13]: 91% | residual activity [14]: 87% | inhibition [15]: 0.16% | residual activity [16]: 83% | residual activity [17]: 92% | residual activity [18]: 100% | residual activity [19]: 81% | residual activity [20]: 100% | residual activity [21]: 100% | residual activity [22]: 42% | residual activity [23]: 78% | residual activity [24]: 100% | residual activity [25]: 99% | residual activity [26]: 79% | residual activity [27]: 75% | residual activity [28]: 71% | residual activity [29]: 100% | residual activity [30]: 100% | residual activity [31]: 84% | residual activity [32]: 100% | residual activity [33]: 44% | residual activity [34]: 95% | residual activity [35]: 100% | residual activity [36]: 88% | residual activity [37]: 100% | residual activity [38]: 88% | residual activity [39]: 88% | residual activity [40]: 100% | residual activity [41]: 92% | residual activity [42]: 73% | residual activity [43]: 100% | residual activity [44]: 100%

C[C@@H](c1cccc(C#N)c1)n1cc(Cl)cc(C(N)=O)c1=N [(S)-9s]
residual activity [1]: 94% | residual activity [2]: 100% | residual activity [3]: 82% | residual activity [4]: 91% | residual activity [5]: 94% | residual activity [6]: 100% | residual activity [7]: 93% | residual activity [8]: 100% | residual activity [9]: 100% | residual activity [10]: 90% | residual activity [11]: 91% | residual activity [12]: 93% | residual activity [13]: 77% | residual activity [14]: 100% | inhibition [15]: 5.78% | residual activity [16]: 93% | residual activity [17]: 100% | residual activity [18]: 96% | residual activity [19]: 80% | residual activity [20]: 100% | residual activity [21]: 100% | residual activity [22]: 65% | residual activity [23]: 97% | residual activity [24]: 96% | residual activity [25]: 99% | residual activity [26]: 83% | residual activity [27]: 94% | residual activity [28]: 57% | residual activity [29]: 100% | residual activity [30]: 87% | residual activity [31]: 96% | residual activity [32]: 91% | residual activity [33]: 91% | residual activity [34]: 100% | residual activity [35]: 90% | residual activity [36]: 73% | residual activity [37]: 89% | residual activity [38]: 93% | residual activity [39]: 100% | residual activity [40]: 100% | residual activity [41]: 93% | residual activity [42]: 72% | residual activity [43]: 100% | residual activity [44]: 100%
